Assay results reported in patent US20190167814A1, “Treatment And/Or Prevention Of DNA-Triplet Repeat Diseases Or Disorders” (UNIVERSITÉ DE LAUSANNE, priority 2016, published 2019).

Key:
GFP(CAG)101 cells [1] = assay: GFP-based assay for CAG repeat expansions and contractions (flow cytometry of GFP- and GFP+ cells); assay type: cell-based, human; conditions: for Cas9 nickase + gCTG-induced GFP-/GFP+ cells on siRNA knockdown, in words: 20 nM siRNA, compared to control knockdown of vimentin; for frequency of GFP+ cells (contractions) induced by Cas9 nickase + gCTG under inhibitor, in words: inhibitor 1 μM, compared to DMSO controls
Protocol: (§1) The GFP(CAG)0 and GFP(CAG)101 cells lines were a kind gift from John H. Wilson^3. The cells tested negative for mycoplasma using the MycoAlert detection kit (Lonza) at the start of our experiments. The GFP(CAG)15, GFP(CAG)18, GFP(CAG)42, GFP(CAG)50, and GFP(CAG)270 were isolated from populations grown for 6 months unperturbed or after transfection with the ZFN. […] The cells were maintained at 37° C. with 5% CO2 in Dulbecco's modified Eagle's medium (DMEM) glutamax, supplemented with 10% Fetal Bovine Serum (FBS), 100 U/mL penicillin (pen), 100 μg/mL streptomycin (strep), 15 μg/mL blasticidine and 150 μg/mL hygromycin. When the cells were destined for flow cytometry, they were kept in DMEM glutamax, with 10% of dialyzed calf serum, along with pen-strep. During the long term culturing, the cells were split 1 to 5 twice a week and the medium was supplemented with blasticidine and hygromycin to ensure continued expression of the TetR and GFP transgenes.
The plasmids used in this study are found in Table 2. cDNA transfections were performed using 6×10^5 cells/well in 12-well plates using a total of 1 μg of DNA and Lipofectamine 2000 (Life Technologies) per well. The culture medium was replaced 6 hours after transfection and 2 μg/mL of dox, diluted in DMSO, was added. Controls without dox were treated with DMSO alone. Forty-eight hours later, the medium was replaced and dox was freshly added. Flow cytometry, protein extraction, and/or DNA extraction were performed after another 48 hours of incubation.
The siRNAs used in this study are found in Table 3. When transfecting with both a cDNA and a siRNA, 8×10^5 cells/well were used along with 1 μg of DNA and 20 nM of siRNAs using Lipofectamine 2000. The medium was replaced 6 hours later and dox was added. Forty-eight hours after the first transfection, we performed a second siRNA transfection with RNAiMax (Life technologies) using half of the cells present and 20 nM of siRNA. We collected the cells to assess knockdown efficiency or GFP fluorescence analysis 48 hours later. When transfecting two siRNAs, we used a final siRNA concentration of 40 nM, where 20 nM of each individual siRNA were used.
(§2) When using small molecule inhibitors (Table 4), the cells were treated as above, except that 2×10^5 fewer cells/well were used. The medium, along with the dox and the inhibitors, were replaced for another 48 hours of treatment. Cell cycle analysis was performed after 96 hours of treatment. Briefly, the cells were fixed with 100% ethanol and treated with RNAseA (50 μg/mL) before adding propidium iodine (50 μg/mL). Flow cytometry analysis was performed as described below.
(§3) In preparation for flow cytometry analysis, cells were re-suspended in phosphate buffered saline (PBS) with 1 mM EDTA to a concentration of about 10^6 cells/mL. For each condition, we measured at least 2×10^5 events using a LSRII from BD. Data analysis was done using Flowing II. FACS was performed using a FACS Aria II (BD) or MoFlo Astrios (Beckman Coulter). For single clone analyses, we re-suspended the cells to a concentration of 2×10^6 cells/mL and sorted the GFP^− and GFP^+ cells. The cells were then expanded in DMEM glutamax supplemented with pen-strep, blasticidine, hygromycin, 5% FBS, and 5% dialyzed calf serum. For DNA isolation, cells were re-suspended to a concentration of 1.4×10^7 cells/mL and we isolated between 4×10^4 and […] from the GFP− and GFP^+ populations. We also isolated cells with GFP intensities between the 25th and 75th percentiles. For viability tests, cells were treated as described above except that 96 hours after the first transfection they were collected in PBS with 1 mM EDTA and 1 μM of TO-PRO-3 was added as a dead cell marker.
To quantify the fold increase in the number of GFP^+ or GFP^− cells, we first established gates that contained the top or bottom 1% of GFP expressing cells in the control treatment, for example the nickase plasmid transfected together with an empty gRNA vector (pPN10). […]

GFP(CAG)101 cells [2] = assay: Cell cycle analysis upon inhibitor treatment (propidium iodine, flow cytometry); assay type: cell-based, human; conditions: for >2n / >4n / G1 / G2 / S: Cas9 D10A + gCTG cells, DMSO or inhibitor 1 μM, 96 hours, average % of cells, n = 4
Protocol: as §2

GFP(CAG)101 cells [3] = assay: Cell viability (TO-PRO-3 dead cell marker, flow cytometry); assay type: cell-based; conditions: Cas9 D10A + gCTG transfected cells treated with DMSO or inhibitor (1 μM); three experiments
Protocol: as §3

PARP1/2 = assay: PAR levels after Zeocin treatment (western blot); assay type: cell-based, human; conditions: 100 μg/ml Zeocin, 30 minutes and 24 hours
Source text: Dashed line: dimmest (GFP^−) or brightest (GFP^+) 1% of the cells transfected with the Cas9 nickase vector; the empty gRNA plasmid; and the indicated siRNAs. Right: western blot showing knockdown efficiency by siRNA against XRCC1. B) Left: same as A, but cells treated with the PARP inhibitor Oliparib (n=4, P=0.5 for GFP^− cells and P=0.4 for GFP^+ compared to DMSO treated-cells, using a Wilcoxon U-test). Dashed line: dimmest (GFP^−) or brightest (GFP^+) 1% of the cells transfected with the Cas9 nickase vector together with the empty gRNA plasmid, and treated with either DMSO or Oliparib. Right: PAR levels 30 minutes and 24 hours after treatment with 100 μg/ml of Zeocin. The error bars represent the standard error.
Protein extraction was done using RIPA buffer and proteinase inhibitor cocktail tablets (Roche, Germany) and at least 10 μg of proteins were loaded onto a 6% or 10% Tris/glycine SDS polyacrylamide gels and transferred onto nitrocellulose membranes. The antibodies used in this study are found in Table 6. An Odyssey Infrared Imager (Licor) was used for signal detection.

GFP(CAG)0 cells = assay: GFP-based reporter assay in isogenic cell line devoid of CAG repeats; set-up: species or system human; conditions: GFP(CAG)0, no CAG repeats
Protocol: as §1, with “When the cells were destined for flow cytometry, they were kept in DMEM glutamax, with 10% of dialyzed calf serum, along with pen-strep. During the long term culturing, the cells were split 1 to 5 twice a week and the medium was supplemented with blasticidine and hygromycin to ensure continued expression of the TetR and GFP transgenes.” left out
In preparation for flow cytometry analysis, cells were re-suspended in phosphate buffered saline (PBS) with 1 mM EDTA to a concentration of about 10^6 cells/mL. For each condition, we measured at least 2×10^5 events using a LSRII from BD. […]
To quantify the fold increase in the number of GFP^+ or GFP^− cells, we first established gates that contained the top or bottom 1% of GFP expressing cells in the control treatment, for example the nickase plasmid transfected together with an empty gRNA vector (pPN10). […] Once the GFP gates established, we calculated the percentage of cells from the treated population (e.g., expressing both the Cas9 nickase and the gCTG) falling within these same gates. […]

[4] = inhibitor 1 μM in combination with Cas9-nickase and gCTG, vs nickase + pPN10 + inhibitor

Row | Molecule | Cas9 nickase + gCTG-induced GFP-/GFP+ cells on siRNA knockdown, in words (GFP(CAG)101 cells [1]) | frequency of GFP+ cells (contractions) induced by Cas9 nickase + gCTG under inhibitor, in words (GFP(CAG)101 cells [1]) | >2n (GFP(CAG)101 cells [2]) [%] | >4n (GFP(CAG)101 cells [2]) [%] | G1 (GFP(CAG)101 cells [2]) [%] | G2 (GFP(CAG)101 cells [2]) [%] | S (GFP(CAG)101 cells [2]) [%] | Viability % (GFP(CAG)101 cells [3]) [%] | other results
1 | siRNA against XRCC1: siRNA targeting XRCC1, SEQ ID No. 8 (CAGUUUGUGAUCACAGCACAGGAAU; listed as RNA, chemistry not given here) | did not affect the GFP expression |  |  |  |  |  |  |  | 
2 | C[C@@H]1CN(CC(=O)Nc2ccc3c(c2)Cc2cccc(-c4cc(=O)cc(N5CCOCC5)o4)c2S3)C[C@H](C)O1 [KU60019] |  | nearly two-fold reduction | 7.5 | 4.9 ± 1 | 34.9 | 37.2 | 15.3 | 77.2 | 
3 | O=C(c1cc(Cc2n[nH]c(=O)c3ccccc23)ccc1F)N1CCN(C(=O)C2CC2)CC1 [Oliparib] |  | Neither treatment changed the frequency | 5.0 | 5.3 ± 1 | 40.7 | 30.0 | 19.0 | 75.9 | PARylation in response to zeocin treatment (PARP1/2): inhibiting PARylation; cell cycle effect, in words (GFP(CAG)101 cells [2]): accumulation of G2 cells
4 | CS(=O)(=O)c1ccc(-c2cnc(N)c(C(=O)Nc3ccccc3)n2)cc1 [VE-821] |  |  | 2.0 | 10.3 ± 3 | 41.4 | 25.4 | 20.9 |  | effect on GFP intensities / GFP expression, in words (GFP(CAG)0 cells): did not affect GFP expression; fold increase in GFP+ cells (GFP(CAG)101 cells [1]; [4]): 5.9 fold; fold increase in GFP- cells (GFP(CAG)101 cells [1]; [4]): 3.1 fold
5 | siXPA: siRNA targeting XPA, SEQ ID No. 7 (GCUACUGGAGGCAUGGCUA; listed as RNA, chemistry not given here) | did not significantly reduce |  |  |  |  |  |  |  | 
6 | siMSH2: siRNA targeting MSH2, SEQ ID No. 6 (UCUGCAGAGUGUUGUGCUU; listed as RNA, chemistry not given here) | did not consistently reduce |  |  |  |  |  |  |  | 
